The values below come from patent US9433622B2, “Pyrimidine compounds useful in the treatment of diseases mediated by IKKE and/or TBK1 mechanisms” (DOMAINEX LIMITED, priority 2013, dated 2016).

Like-named read-outs stand apart in the source and are kept apart here.

As a reminder, the IC50 is the concentration at which inhibition is half-maximal.

For assay [1] the following is noted: mice models of obesity; cited from earlier work.
A further assay deals with TBK1 (Homo sapiens (Human), UniProt Q9UHD2). Description: Lanthascreen TR-FRET kinase inhibition assay, TBK1. Conditions: 20 μM ATP (apparent Km), 8 nM kinase, 2.5 h. Type of assay: biochemical. In a few lines:
(§1)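 TR-FRET: terbium phosphospecific antibody detects phosphorylation of 400 nM fluorescein-IkBα peptide, 20 μM ATP, 20 °C, HEPES pH 7.5 with 3% DMSO. IKKε at 2 nM, 1 h reaction; TBK1 at 8 nM, 2.5 h reaction; started by kinase addition.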
In general terms: In TR-FRET formats the signal depends on donor and acceptor labels being close together.

For a further assay, the target named is IKKε (Homo sapiens (Human), UniProt Q14164). Put plainly: Lanthascreen TR-FRET kinase inhibition assay, IKKε. The class given is biochemical. In a few lines:
as §1

[2] abbreviates: 20 μM ATP (apparent Km), 2 nM kinase, 1 h.

IKKε, sequence (Q14164 whole entry): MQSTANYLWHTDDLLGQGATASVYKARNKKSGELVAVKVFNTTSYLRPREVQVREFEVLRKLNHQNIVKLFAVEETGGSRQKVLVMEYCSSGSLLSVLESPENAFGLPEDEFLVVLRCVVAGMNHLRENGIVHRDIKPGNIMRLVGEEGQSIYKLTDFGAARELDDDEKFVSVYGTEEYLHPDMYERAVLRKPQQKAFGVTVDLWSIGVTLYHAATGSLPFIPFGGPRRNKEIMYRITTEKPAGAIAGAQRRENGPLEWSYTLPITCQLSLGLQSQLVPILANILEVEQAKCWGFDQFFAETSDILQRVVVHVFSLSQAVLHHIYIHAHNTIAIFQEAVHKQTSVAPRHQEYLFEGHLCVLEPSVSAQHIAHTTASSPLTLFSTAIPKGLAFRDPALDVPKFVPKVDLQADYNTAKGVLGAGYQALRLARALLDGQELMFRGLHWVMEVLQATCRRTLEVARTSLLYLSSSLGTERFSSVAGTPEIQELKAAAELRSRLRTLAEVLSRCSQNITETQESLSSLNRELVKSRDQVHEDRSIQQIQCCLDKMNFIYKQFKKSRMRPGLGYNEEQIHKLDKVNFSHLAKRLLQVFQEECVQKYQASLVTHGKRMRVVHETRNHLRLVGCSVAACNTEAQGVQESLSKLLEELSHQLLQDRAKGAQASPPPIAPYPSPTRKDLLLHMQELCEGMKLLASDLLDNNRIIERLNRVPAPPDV
TBK1, sequence (Q9UHD2 whole entry): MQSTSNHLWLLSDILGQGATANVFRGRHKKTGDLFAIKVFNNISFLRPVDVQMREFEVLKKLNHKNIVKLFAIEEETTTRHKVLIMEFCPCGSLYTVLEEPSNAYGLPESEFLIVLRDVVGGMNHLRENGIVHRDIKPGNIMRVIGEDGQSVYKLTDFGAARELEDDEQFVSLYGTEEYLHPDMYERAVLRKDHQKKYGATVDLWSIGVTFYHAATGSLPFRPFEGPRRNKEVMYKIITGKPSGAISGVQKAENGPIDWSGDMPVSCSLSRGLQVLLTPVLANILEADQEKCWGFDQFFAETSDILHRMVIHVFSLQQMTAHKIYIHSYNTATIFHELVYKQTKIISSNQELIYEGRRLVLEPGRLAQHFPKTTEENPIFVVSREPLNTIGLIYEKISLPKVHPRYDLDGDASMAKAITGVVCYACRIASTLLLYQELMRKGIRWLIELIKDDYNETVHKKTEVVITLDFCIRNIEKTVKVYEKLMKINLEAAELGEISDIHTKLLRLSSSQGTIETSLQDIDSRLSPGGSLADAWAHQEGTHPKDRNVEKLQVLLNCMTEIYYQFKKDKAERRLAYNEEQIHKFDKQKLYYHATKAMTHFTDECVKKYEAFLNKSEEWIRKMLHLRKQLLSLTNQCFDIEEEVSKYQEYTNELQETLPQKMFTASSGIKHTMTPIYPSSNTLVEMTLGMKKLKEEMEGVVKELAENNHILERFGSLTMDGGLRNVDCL

With `CC(C)c1ccc2oc3nc(N)c(C(=O)O)cc3c(=O)c2c1` [Amlexanox], in assay [1], the blood glucose levels entry is “lower blood glucose levels” and the weight gain result is reported as “reduce weight gain”.

For the molecule `N#Cc1nc(-c2ccnc(Nc3ccc(CN4CCOCC4)nc3)n2)ccc1N1CC[C@H](F)C1` [DMX-143, 3-((S)-3-Fluoro-pyrrolidin-1-yl)-6-[2-(6-morpholin-4-ylmethyl-pyridin-3-ylamino)-pyrimidin-4-yl]-pyridine-2-carbonitrile], the IC50 at TBK1 and on IKKε (setting [2]) was below 15 nM throughout.

Take `N#Cc1nc(-c2ccnc(Nc3ccc(CN4CCOCC4)nc3)n2)ccc1N1CC[C@H](O)C1` [DMX-144, 3-((S)-3-Hydroxy-pyrrolidin-1-yl)-6-[2-(6-morpholin-4-ylmethyl-pyridin-3-ylamino)-pyrimidin-4-yl]-pyridine-2-carbonitrile]: the IC50 on TBK1 and on IKKε (setting [2]) was below 30 nM each time.

Regarding `N#Cc1nc(-c2ccnc(Nc3ccc(NC(=O)CN4CC[C@H](F)C4)nc3)n2)ccc1N1CC[C@H](F)C1` [DMX-145, N-(5-{4-[6-Cyano-5-((S)-3-fluoro-pyrrolidin-1-yl)-pyridin-2-yl]-pyrimidin-2-ylamino}-pyridin-2-yl)-2-((S)-3-fluoro-pyrrolidin-1-yl)-acetamide], the concentration for half-maximal inhibition (IC50) on TBK1 and at IKKε (setting [2]) was below 30 nM each time.

As to `N#Cc1nc(-c2ccnc(Nc3ccc(NC(=O)CN4CC[C@H](F)C4)nc3)n2)ccc1N1CC[C@H](O)C1` [DMX-146, N-(5-{4-[6-Cyano-5-((S)-3-hydroxy-pyrrolidin-1-yl)-pyridin-2-yl]-pyrimidin-2 ylamino}-pyridin-2-yl)-2-((S)-3-fluoro-pyrrolidin-1-yl)-acetamide], the IC50 on TBK1 is below 30 nM; at IKKε (setting [2]), below 100 nM.

Consider `N#Cc1nc(-c2ccnc(Nc3ccc(OCCN4CC[C@H](F)C4)nc3)n2)ccc1N1CC[C@H](F)C1` [DMX-147, 3-((S)-3-Fluoro-pyrrolidin-1-yl)-6-(2-{6-[2-((S)-3-fluoro-pyrrolidin-1-yl)-ethoxy]-pyridin-3-ylamino}-pyrimidin-4-yl)-pyridine-2-carbonitrile], for which the IC50 was below 30 nM on TBK1 and below 100 nM on IKKε (setting [2]).

Regarding `N#Cc1nc(-c2ccnc(Nc3ccc(OCCN4CC[C@H](F)C4)nc3)n2)ccc1N1CC[C@H](O)C1` [DMX-148, 6-(2-{6-[2-((S)-3-Fluoro-pyrrolidin-1-yl)-ethoxy]-pyridin-3-ylamino}-pyrimidin-4-yl)-3-((S)-3-hydroxy-pyrrolidin-1-yl)-pyridine-2-carbonitile], the concentration for half-maximal inhibition (IC50) on TBK1 and on IKKε (setting [2]) was below 100 nM each time.

`C[C@H]1COCCN1Cc1ccc(Nc2nccc(-c3ccc(N4CC[C@H](F)C4)c(C#N)n3)n2)cn1` [DMX-149, 3-((S)-3-Fluoro-pyrrolidin-1-yl)-6-{2-[6-((S)-3-methyl-morpholin-4-ylmethyl)-pyridin-3-ylamino]-pyrimidin-4-yl}-pyridine-2-carbonitrile]: the IC50 at TBK1 and against IKKε was below 15 nM throughout.

As for `N#Cc1nc(-c2ccnc(Nc3ccc(CN4CC[C@H](F)C4)nc3)n2)ccc1N1CC[C@H](F)C1` [DMX-150, 3-((S)-3-Fluoro-pyrrolidin-1-yl)-6-{2-[6-((S)-3-fluoro-pyrrolidin-1-ylmethyl)-pyridin-3-ylamino]-pyrimidin-4-yl}-pyridine-2-carbonitrile], the IC50 on TBK1 and on IKKε (setting [2]) was below 15 nM in each case.

Consider `Cc1nccn1Cc1ccc(Nc2nccc(-c3ccc(N4CC[C@H](F)C4)c(C#N)n3)n2)cn1` [DMX-151, 3-((S)-3-Fluoro-pyrrolidin-1-yl)-6-{2-[6-(2-methyl-imidazol-1-ylmethyl)-pyridin-3-ylamino]-pyrimidin-4-yl}-pyridine-2-carbonitrile], for which the IC50 at TBK1 and on IKKε (setting [2]) was below 30 nM in each case.

As for `COCCN(C)Cc1ccc(Nc2nccc(-c3ccc(N4CC[C@H](F)C4)c(C#N)n3)n2)cn1` [DMX-152, 3-((S)-3-Fluoro-pyrrolidin-1-yl)-6-[2-(6-{[(2-methoxy-ethyl)-methyl-amino]-methyl}-pyridin-3-ylamino)-pyrimidin-4-yl]-pyridine-2-carbonitrile], the IC50 at TBK1 and at IKKε (setting [2]) was below 30 nM throughout.

For the molecule `N#Cc1nc(-c2nc(Nc3ccc(N4CCOCC4)cc3)ncc2F)ccc1N1CC[C@H](F)C1` [DMX-153, 6-[5-Fluoro-2-(4-morpholin-4-yl-phenylamino)-pyrimidin-4-yl]-3-((S)-3-fluoro-pyrrolidin-1-yl)-pyridine-2-carbonitrile], the IC50 at TBK1 and on IKKε (setting [2]) was below 15 nM each time.

In the case of `COCCN(C)c1ccc(-c2ccnc(Nc3cnn(C)c3)n2)nc1C#N` [DMX-155], the IC50 at TBK1 and on IKKε (setting [2]) was below 1000 nM in each case.

On to `N#Cc1nc(-c2ccnc(Nc3ccc(CN4CCNC(=O)C4)nc3)n2)ccc1N1CC[C@H](F)C1` [DMX-156, 3-((S)-3-Fluoro-pyrrolidin-1-yl)-6-{2-[6-(3-oxo-piperazin-1-ylmethyl)-pyridin-3-ylamino]-pyrimidin-4-yl}-pyridine-2-carbonitrile], for which the IC50 at TBK1 and at IKKε (setting [2]) was below 15 nM each time.

For the molecule `COCCNCc1ccc(Nc2nccc(-c3ccc(N4CC[C@H](F)C4)c(C#N)n3)n2)cn1` [DMX-157, 3-((S)-3-Fluoro-pyrrolidin-1-yl)-6-(2-{6-[(2-methoxy-ethylamino)-methyl]-pyridin-3-ylamino}-pyrimidin-4-yl)-pyridine-2-carbonitrile], the figures for the IC50 on TBK1 and on IKKε (setting [2]) were below 30 nM and below 100 nM, respectively.

Regarding `N#Cc1cc(-c2ccnc(Nc3ccc(CN4CCOCC4)nc3)n2)cnc1N1CCC(CC(N)=O)C1` (centres unmarked) [DMX-158, 2-(1-{3-Cyano-5-[2-(6-morpholin-4-ylmethyl-pyridin-3-ylamino)-pyrimidin-4-yl]-pyridin-2-yl}-pyrrolidin-3-yl)-acetamide], the concentration for half-maximal inhibition (IC50) on TBK1 and on IKKε (setting [2]) was below 100 nM throughout.

In the case of `CC1CN(c2ncc(-c3ccnc(Nc4ccc(CN5CCOCC5)nc4)n3)cc2C#N)CCO1` (centres unmarked) [DMX-159, 2-(2-Methyl-morpholin-4-yl)-5-[2-(6-morpholin-4-ylmethyl-pyridin-3-ylamino)-pyrimidin-4-yl]-nicotinonitrile], the IC50 on TBK1 and at IKKε (setting [2]) was below 1000 nM throughout.

For the molecule `COCC1CCN(c2ncc(-c3ccnc(Nc4ccc(CN5CCOCC5)nc4)n3)cc2C#N)C1` (centres unmarked) [DMX-160, 2-(3-Methoxymethyl-pyrrolidin-1-yl)-5-[2-(6-morpholin-4-ylmethyl-pyridin-3-ylamino)-pyrimidin-4-yl]-nicotinonitrile], the IC50 on TBK1 is below 1000 nM; on IKKε (setting [2]), below 100 nM.

Turning to `N#Cc1cc(-c2ccnc(Nc3ccc(CN4CCOCC4)nc3)n2)cnc1N1CCC(OC(F)F)C1` (centres unmarked) [DMX-161, 2-(3-Difluoromethoxy-pyrrolidin-1-yl)-5-[2-(6-morpholin-4-ylmethyl-pyridin-3-ylamino)-pyrimidin-4-yl]-nicotinonitrile], the values for the IC50 on TBK1 and at IKKε (setting [2]) were below 100 nM and below 30 nM, respectively.

As to `N#Cc1cc(-c2ccnc(Nc3ccc(CN4CCOCC4)nc3)n2)cnc1N1CCC(CCC(N)=O)C1` (centres unmarked) [DMX-162, 3-(1-{3-Cyano-5-[2-(6-morpholin-4-ylmethyl-pyridin-3-ylamino)-pyrimidin-4-yl]-pyridin-2-yl}-pyrrolidin-3-yl)-propionamide], the IC50 at TBK1 is below 100 nM; at IKKε (setting [2]), below 30 nM.

As for `CN(c1ncc(-c2ccnc(Nc3ccc(CN4CCOCC4)nc3)n2)cc1C#N)C1CCOC1` (centres unmarked) [DMX-163, 2-[Methyl-(tetrahydro-furan-3-yl)-amino]-5-[2-(6-morpholin-4-ylmethyl-pyridin-3-ylamino)-pyrimidin-4-yl]-nicotinonitrile], the 50% inhibitory concentration (IC50) at TBK1 and on IKKε (setting [2]) was below 100 nM in each case.

Take `N#Cc1nc(-c2ccnc(Nc3ccc(CN4CCOCC4)nc3)n2)ccc1N1CCCOCC1` [DMX-164, 6-[2-(6-Morpholin-4-ylmethyl-pyridin-3-ylamino)-pyrimidin-4-yl]-3-[1,4]oxazepan-4-yl-pyridine-2-carbonitrile]: the IC50 is below 100 nM on TBK1 and below 30 nM at IKKε (setting [2]).

Consider `N#Cc1nc(-c2ccnc(Nc3ccc(CN4CCOCC4)nc3)n2)ccc1N1CCC2(COC2)C1` [DMX-165, 6-[2-(6-Morpholin-4-ylmethyl-pyridin-3-ylamino)-pyrimidin-4-yl]-3-(2-oxa-6-aza-spiro[3.4]oct-6-yl)-pyridine-2-carbonitrile], for which the figures for the IC50 on TBK1 and on IKKε (setting [2]) were below 30 nM and below 15 nM, respectively.

As for `N#Cc1nc(-c2ccnc(Nc3ccc(NC(=O)CN4CCOCC4)nc3)n2)ccc1N1CCCOCC1` [DMX-166, N-{5-[4-(6-Cyano-5-[1,4]oxazepan-4-yl-pyridin-2-yl)-pyrimidin-2-ylamino]-pyridin-2-yl)-2-morpholin-4-yl-acetamide], the IC50 at TBK1 and on IKKε (setting [2]) was below 100 nM in each case.

As to `N#Cc1nc(-c2ccnc(Nc3ccc(NC(=O)CN4CCOCC4)nc3)n2)ccc1N1CCC2(COC2)C1` [DMX-167, N-(5-{4-[6-Cyano-5-(2-oxa-6-aza-spiro[3.4]oct-6-yl)-pyridin-2-yl]-pyrimidin-2-ylamino}-pyridin-2-yl)-2-morpholin-4-yl-acetamide], the IC50 was below 100 nM on TBK1 and below 30 nM on IKKε (setting [2]).
